Data as given in patent US20130150399A1, “INHIBITORS OF THE UNFOLDED PROTEIN RESPONSE AND METHODS FOR THEIR USE” (The Board of Trustees of the Leland Stanford Junior …, priority 2006, published 2013).

Legend:
RNAse A = target: T1, RNAse A (Bos taurus, UniProt P61823); test: RNAse A activity assay; format: biochemical, bovine; settings: >100-fold molar excess of irestatin 9389
T1 construct: purchased Sigma

HIF-1α = test: Western immunoblot of HIF-1α, HT1080 cells under hypoxia; format: cell-based, human; settings: 2 μM; 24 hours of hypoxia
Procedure: Cells (2×10^6) were cultured in 10-cm dishes, collected using a cell scraper at 4° C., and lysed by addition of 150 μl cell lysis buffer [50 mM Tris pH 7.4, 150 mM NaCl, 10% glycerol, 0.5% Triton X-100. 0.5% NP-40, 2 mM Na3VO4, 20 mM beta-glycerophosphate, 10 mM NaF, 1 mM DTT, 1 mM PMSF). Lysates were centrifuged for 5 min at 10,000×g, and proteins (˜40 μg) were resolved by SDS-PAGE followed by semi-dry transfer to nitrocellulose membranes. Membranes were blocked in TBS-5% milk supplemented with 0.1% Tween-20. The blots were then probed overnight with relevant antibodies, washed, and incubated for 2 hours with species-specific secondary antibodies conjugated to horseradish peroxidase. After washing in block solution, immunoreactive material was detected by enhanced chemiluminescence (SuperSignal West Dura Extended, Pierce, Inc., Rockville, Ill.).
A. XBP-luciferase reporter construct. […] After 24 hours, luciferase activity was analyzed in an automated plate reader. For each cell line, values are expressed as the percent inhibition of the median for Tm/Tg-treated wells, corrected for background. […] Values are expressed as the fold increases over uninduced levels. […] Cells were harvested, lysed, and analyzed by immunoblotting with antisera specific for HIF-1α (top), XBP-1s (middle) or actin (bottom). […] Total RNA was analyzed by Northern blotting using radiolabeled probes specific for P58^IPK or DER-1. […]

[1] = test system: 5×-UPRE luciferase reporter (XBP-1s); test: 5×-UPRE luciferase reporter assay, HT1080 cells; format: cell-based, human
Procedure: HT1080 cells stably expressing the XBP-luciferase construct were grown in 60 mm dishes to 60-70% confluency. Following hypoxia treatment, cells were washed twice with PBS, lysed in 400 μl 1× reporter lysis buffer (RLB) (Promega, Madison Wis.) for 30 min at 24° C. Lysates (100 μl) were mixed with an equal volume of luciferase substrate (Promega), and assayed using a luminometer. For 5×-UPRE-luciferase reporter assays, cells were co-transfected with the appropriate reporter plasmid and a control plasmid (pSV40-beta-gal) using Lipofectamine 2000 (Invitrogen, San Diego, Calif.). Twenty-four hours after transfection, fresh media was added, and cells were treated with Tm or shifted to hypoxia. After treatment, cells were lysed in 1×RLB and analyzed for luciferase activity as described above. Beta-galactosidase activity was determined using the beta-galactosidase enzyme assay system (Promega).
A. XBP-luciferase reporter construct. Firefly luciferase was inserted downstream of the IRE1α splice site in human XBP-1 to enable the conditional translation of luciferase under ER stress in an IRE1α-dependent manner. B. Selective inhibition of the XBP-luciferase reporter by irestatin 9389. HT1080 human fibrosarcoma cells stably expressing the XBP-luciferase reporter or CMV-luciferase were cultured in the presence of Tm (4 μg/ml) and Tg (0.4 μM) and irestatin 9389 at the indicated concentrations. After 24 hours, luciferase activity was analyzed in an automated plate reader. For each cell line, values are expressed as the percent inhibition of the median for Tm/Tg-treated wells, corrected for background. C. Structure of irestatin 9389. […] Values are expressed as the fold increases over uninduced levels. […] Cells were harvested, lysed, and analyzed by immunoblotting with antisera specific for HIF-1α (top), XBP-1s (middle) or actin (bottom). […] Total RNA was analyzed by Northern blotting using radiolabeled probes specific for P58^IPK or DER-1. […]
Since these assays employed a chimeric XBP-luciferase substrate, we next determined whether irestatin 9389 could inhibit the function of endogenous XBP-1s. […]

T1 sequence (P61823 27-150): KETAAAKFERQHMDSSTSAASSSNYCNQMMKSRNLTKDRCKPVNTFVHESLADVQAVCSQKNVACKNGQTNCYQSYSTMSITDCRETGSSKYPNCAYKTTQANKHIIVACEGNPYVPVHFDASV

In the case of `Cc1csc(NC(=O)CSc2nc3c(c(C(F)(F)F)c2C#N)CCC3)n1` [Compound 9389], the “degradation of the XBP-1 3′ intronic loop by RNAse A” value (RNAse A) is reported as “failed to inhibit degradation”, the “expression of HIF-1α” value (HIF-1α) is reported as “not affected” and the “diminution of hypoxia-induced UPRE luciferase response” value ([1]; 48 hours of hypoxia (vehicle 170-fold)) is reported as “more than 90%”. The “induction of 5×-UPRE luciferase activity over untreated cells” value ([1]; cells exposed to both Tm and irestatin 9389) was less than 4 fold.
